Values after ≈ are worked out from the molar mass of the structure shown. Like-named read-outs stand apart in the source and are kept apart here.
Columns and labels:
Format in all cases: physicochemical
[1] = Solubility in formulation vehicles with different solubilizers; conditions: for Solubility in vehicle containing Solutol 15 HS compared to polyoxyethylated surfactants: comparison in words; for solubility at 8 weeks: read-out: Solubility (mg/ml) measured after 8 weeks
Text: Table 1 summarizes solubility of Cmpd 1 in vehicles with 4 different solubilizers over a range of temperatures.

[2] = Stability of Cmpd 1 in formulations, impurities by percent area LC; conditions: macrogol 15 hydroxystearate vs PS80 formulation of Table 3; 25° C. and 40° C. storage; FIGS. 2A-D
Experimental: FIGS. 2A-D: Stability results for Cmpd 1 in formulations containing either polysorbate 80 (PS80) or macrogol 15 hydroxystearate (Sol-2) as solubilizer as shown in Table 3. See Examples. […] Impurity amounts were calculated by percent area by liquid chromatography (LC). FIG. 2A: 25° C. storage, total impurities. FIG. 2B: 25° C. storage, major degradation product. FIG. 2C: 40° C. storage, total impurities. FIG. 2D: 40° C. storage, major degradation product. Legend: as in FIG. 1.

[3] = Stability of Cmpd 2 in formulations, percent remaining by LC
Experimental: FIG. 1. See Examples. Samples were stored at 25° C. Axes: x-axis (time, months); y-axis (stability of Cmpd 2 as measured by percent remaining by liquid chromatography, LC). Legend: macrogol 15 hydroxystearate (box); polysorbate 80 (diamond).
See Examples. […] Axes: x-axis (time, months); y-axis (stability of Cmpd 2 as measured by percent remaining by liquid chromatography, LC). Legend Formulation PSI, storage 40° C./20% RH, % remaining by LC (Diamond); Formulation Sol1, storage 40° C./20% RH, % remaining by LC (Square); Formulation PSI, storage 25° C./40% RH, % remaining by LC (Triangle); Formulation Sol1, storage 25° C./40% RH, % remaining by LC (cross); Formulation PSI, storage 5° C., % remaining by LC (Asterix); Formulation Sol1, storage 5° C., % remaining by LC (circle).
Axes: x-axis (time, months); y-axis (stability of Cmpd 2 as measured by percent remaining by liquid chromatography, LC). Legend Formulation #2, storage 5°, % remaining by LC (Diamond); Formulation #2, storage 25° C./40% RH, % remaining by LC (Square); Formulation #2, storage 30° C./60% RH, % remaining by LC (Triangle); Formulation #5, storage 5° C., % remaining by LC (cross); Formulation #5, storage 25° C./40% RH, % remaining by LC (Asterix); Formulation #5, storage 30° C./60% RH, % remaining by LC (circle).

[4] = Cmpd 4 solubility in Solutol HS 15 vehicles

CCCCC[C@H](O)c1ccc(N2C(=O)CC[C@@H]2COCc2ccc(C(=O)OC(C)C)s2)cc1 [Cmpd 1, isopropyl 5-((((R)-1-(4-((S)-1-hydroxyhexyl)phenyl)-5-oxopyrrolidin-2-yl)methoxy)methyl)thiophene-2-carboxylate]
Solubility in vehicle containing Solutol 15 HS compared to polyoxyethylated surfactants [1]: higher than that containing POE40 stearate or polysorbate 20, but slightly lower than that containing Polysorbate 80
solubility at 8 weeks ([1]; formulation vehicle with 1% POE 40 Stearate, aqueous with cosolvent or surfactant or cyclodextrin, vehicle with 1% POE 40 Stearate, 5 °C): 1.27 mg/mL (≈ 2680 µM)
solubility at 8 weeks ([1]; formulation vehicle with 1% POE 40 Stearate, aqueous with cosolvent or surfactant or cyclodextrin, vehicle with 1% POE 40 Stearate, 25 °C): 1.21 mg/mL (≈ 2560 µM)
solubility at 8 weeks ([1]; formulation vehicle with 1% POE 40 Stearate, aqueous with cosolvent or surfactant or cyclodextrin, vehicle with 1% POE 40 Stearate, 40 °C): 1.15 mg/mL (≈ 2430 µM)
solubility at 8 weeks ([1]; formulation vehicle with 1% Polysorbate 20, aqueous with cosolvent or surfactant or cyclodextrin, vehicle with 1% Polysorbate 20, 5 °C): 1.24 mg/mL (≈ 2620 µM)
solubility at 8 weeks ([1]; formulation vehicle with 1% Polysorbate 20, aqueous with cosolvent or surfactant or cyclodextrin, vehicle with 1% Polysorbate 20, 25 °C): 1.18 mg/mL (≈ 2490 µM)
solubility at 8 weeks ([1]; formulation vehicle with 1% Polysorbate 20, aqueous with cosolvent or surfactant or cyclodextrin, vehicle with 1% Polysorbate 20, 40 °C): 1.05 mg/mL (≈ 2220 µM)
solubility at 8 weeks ([1]; formulation vehicle with 1% Polysorbate 80, aqueous with cosolvent or surfactant or cyclodextrin, vehicle with 1% Polysorbate 80, 5 °C): 1.68 mg/mL (≈ 3540 µM)
solubility at 8 weeks ([1]; formulation vehicle with 1% Polysorbate 80, aqueous with cosolvent or surfactant or cyclodextrin, vehicle with 1% Polysorbate 80, 25 °C): 1.52 mg/mL (≈ 3220 µM)
solubility at 8 weeks ([1]; formulation vehicle with 1% Polysorbate 80, aqueous with cosolvent or surfactant or cyclodextrin, vehicle with 1% Polysorbate 80, 40 °C): 1.46 mg/mL (≈ 3080 µM)
solubility at 8 weeks ([1]; formulation vehicle with 1% Solutol HS 15, aqueous with cosolvent or surfactant or cyclodextrin, vehicle with 1% Solutol HS 15, 5 °C): 1.5 mg/mL (≈ 3170 µM)
solubility at 8 weeks ([1]; formulation vehicle with 1% Solutol HS 15, aqueous with cosolvent or surfactant or cyclodextrin, vehicle with 1% Solutol HS 15, 25 °C): 1.32 mg/mL (≈ 2790 µM)
solubility at 8 weeks ([1]; formulation vehicle with 1% Solutol HS 15, aqueous with cosolvent or surfactant or cyclodextrin, vehicle with 1% Solutol HS 15, 40 °C): 1.24 mg/mL (≈ 2610 µM)
Oxidative degradation (total impurities, major degradation product) [2]: prevent oxidative degradation seen in PS80 containing formulations

CCCCC[C@H](O)c1ccc(N2C(=O)CC[C@@H]2CCCc2ccc(C(=O)OC(C)C)s2)cc1 [Cmpd 2, isopropyl 5-(3-((S)-1-(4-((S)-1-hydroxyhexyl)phenyl)-5-oxopyrrolidin-2-yl)propyl)thiophene-2-carboxylate]
Solubility in vehicle containing Solutol 15 HS compared to polyoxyethylated surfactants [1]: comparable or better solubility
Degradation (percent remaining by LC) ([3]; macrogol 15 hydroxystearate (#2) vs PS80 (#5) formulation of Table 8, 5° C., 25° C./40% RH, 30° C./60% RH, FIG. 4): prevent degradation seen in PS80 containing formulations at all storage conditions
Degradation (percent remaining by LC) ([3]; macrogol 15 hydroxystearate vs PS80 formulation of Table 7, 40° C./20% RH storage, FIG. 3): prevent degradation seen in PS80 containing formulations

Cc1c(COC(=O)C(C)(C)C)cccc1[C@H](C)c1c[nH]cn1 [Cmpd 4, 3-[(1S)-1-(1H-imidazol-4-yl)ethyl]-2-methylbenzyl pivalate]
Cmpd 4 Solubility (% w/w) <mixing overnights (>24 hr) at ambient room temperature> ([4]; 0.1% Solutol HS 15, adjusted to pH 5.5, final pH 5.9 post-filtration): 0.07 % w/w
Cmpd 4 Solubility (% w/w) <mixing overnights (>24 hr) at ambient room temperature> ([4]; 0.1% Solutol HS 15, adjusted to pH 6.5, final pH 6.7 post-filtration): 0.02 % w/w
Cmpd 4 Solubility (% w/w) <mixing overnights (>24 hr) at ambient room temperature> ([4]; 0.5% Solutol HS 15, adjusted to pH 5.5, final pH 6.1 post-filtration): 0.11 % w/w
Cmpd 4 Solubility (% w/w) <mixing overnights (>24 hr) at ambient room temperature> ([4]; 0.5% Solutol HS 15, adjusted to pH 6.5, final pH 6.8 post-filtration): 0.06 % w/w
Cmpd 4 Solubility (% w/w) <mixing overnights (>24 hr) at ambient room temperature> ([4]; 1.0% Solutol HS 15, adjusted to pH 5.5, final pH 6.1 post-filtration): 0.16 % w/w
Cmpd 4 Solubility (% w/w) <mixing overnights (>24 hr) at ambient room temperature> ([4]; 1.0% Solutol HS 15, adjusted to pH 6.5, final pH 6.8 post-filtration): 0.10 % w/w

Reference: patent US20230241030A1, “MACROGOL 15 HYDROXYSTEARATE FORMULATIONS” (Allergan, Inc., priority 2011, published 2023)
